#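 Assay format: 96-well plates, 48-hour exposure. GI50 marks 50% less growth. At the TGI there is no net growth.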
# Legend:
# Experiment in all cases: NCI-60 cell line screen, 48 h
# HOP-62 NSCLC = test system: HOP-62 NSCLC
# SW-620 colon = test system: SW-620 colon
# ACHN renal = test system: ACHN renal
# KM20L2 colon = test system: KM20L2 colon
# SK-OV-3 ovarian = test system: SK-OV-3 ovarian
# LXFL 529 NSCLC = test system: LXFL 529 NSCLC
# NCI-H23 lung = test system: NCI-H23 lung
# SN12C renal = test system: SN12C renal
# CCRF-CEM leukemia = test system: CCRF-CEM leukemia
# SR leukemia = test system: SR leukemia
# EKVX NSCLC = test system: EKVX NSCLC
# OVCAR-4 ovarian = test system: OVCAR-4 ovarian
# A549 NSCLC = test system: A549 NSCLC
# DMS 273 small cell lung = test system: DMS 273 small cell lung
# TK-10 renal = test system: TK-10 renal
# M14 melanoma = test system: M14 melanoma
# NCI-H460 lung = test system: NCI-H460 lung
# OVCAR-3 ovarian = test system: OVCAR-3 ovarian
# DMS 114 small cell lung = test system: DMS 114 small cell lung
# SF-539 CNS = test system: SF-539 CNS
# SF-268 CNS = test system: SF-268 CNS
# OVCAR-5 ovarian = test system: OVCAR-5 ovarian
# RXF 393 renal = test system: RXF 393 renal
# HCC-2998 colon = test system: HCC-2998 colon
# OVCAR-8 ovarian = test system: OVCAR-8 ovarian
# 786-0 renal = test system: 786-0 renal
# HCT-116 colon = test system: HCT-116 colon
# SK-MEL-28 melanoma = test system: SK-MEL-28 melanoma
# UACC-257 melanoma = test system: UACC-257 melanoma
# DLD-1 colon = test system: DLD-1 colon
# UO-31 renal = test system: UO-31 renal
# U251 CNS = test system: U251 CNS
# SNB-78 CNS = test system: SNB-78 CNS
# KM12 colon = test system: KM12 colon
# HCT-15 colon = test system: HCT-15 colon
# SNB-75 CNS = test system: SNB-75 CNS
# SK-MEL-5 melanoma = test system: SK-MEL-5 melanoma
# RPMI-8226 leukemia = test system: RPMI-8226 leukemia
# IGROV1 ovarian = test system: IGROV1 ovarian
# LOX IMVI melanoma = test system: LOX IMVI melanoma
# SF-295 CNS = test system: SF-295 CNS
# M19-MEL melanoma = test system: M19-MEL melanoma
# HT29 colon = test system: HT29 colon
# SNB-19 CNS = test system: SNB-19 CNS
# UACC-62 melanoma = test system: UACC-62 melanoma
# MOLT-4 leukemia = test system: MOLT-4 leukemia
# COLO 205 colon = test system: COLO 205 colon
# NCI-H226 lung = test system: NCI-H226 lung
compound,measurement,setting,value
CC(=O)[O-].CC(=O)[O-].CC(=O)[O-].CC(=O)[O-].CO.CO.CO.[Rh+2].[Rh+2].c1ccc(-c2ccccn2)nc1,GI50,HOP-62 NSCLC,> 100 µM
same,TGI,HOP-62 NSCLC,> 100 µM
same,GI50,SW-620 colon,> 100 µM
same,TGI,SW-620 colon,> 100 µM
same,GI50,ACHN renal,> 100 µM
same,TGI,ACHN renal,> 100 µM
same,GI50,KM20L2 colon,> 100 µM
same,TGI,KM20L2 colon,> 100 µM
same,GI50,SK-OV-3 ovarian,> 100 µM
same,TGI,SK-OV-3 ovarian,> 100 µM
same,GI50,LXFL 529 NSCLC,55.6 µM
same,TGI,LXFL 529 NSCLC,> 100 µM
same,GI50,NCI-H23 lung,> 100 µM
same,TGI,NCI-H23 lung,> 100 µM
same,GI50,SN12C renal,> 100 µM
same,TGI,SN12C renal,> 100 µM
same,GI50,CCRF-CEM leukemia,44.6 µM
same,TGI,CCRF-CEM leukemia,> 100 µM
same,GI50,SR leukemia,> 100 µM
same,TGI,SR leukemia,> 100 µM
same,GI50,EKVX NSCLC,> 100 µM
same,TGI,EKVX NSCLC,> 100 µM
same,GI50,OVCAR-4 ovarian,> 100 µM
same,TGI,OVCAR-4 ovarian,> 100 µM
same,GI50,A549 NSCLC,> 100 µM
same,TGI,A549 NSCLC,> 100 µM
same,GI50,DMS 273 small cell lung,> 100 µM
same,TGI,DMS 273 small cell lung,> 100 µM
same,GI50,TK-10 renal,> 100 µM
same,TGI,TK-10 renal,> 100 µM
same,GI50,M14 melanoma,> 100 µM
same,TGI,M14 melanoma,> 100 µM
same,GI50,NCI-H460 lung,> 100 µM
same,TGI,NCI-H460 lung,> 100 µM
same,GI50,OVCAR-3 ovarian,> 100 µM
same,TGI,OVCAR-3 ovarian,> 100 µM
same,GI50,DMS 114 small cell lung,62.2 µM
same,TGI,DMS 114 small cell lung,> 100 µM
same,GI50,SF-539 CNS,> 100 µM
same,TGI,SF-539 CNS,> 100 µM
same,GI50,SF-268 CNS,> 100 µM
same,TGI,SF-268 CNS,> 100 µM
same,GI50,OVCAR-5 ovarian,> 100 µM
same,TGI,OVCAR-5 ovarian,> 100 µM
same,GI50,RXF 393 renal,> 100 µM
same,TGI,RXF 393 renal,> 100 µM
same,GI50,HCC-2998 colon,> 100 µM
same,TGI,HCC-2998 colon,> 100 µM
same,GI50,OVCAR-8 ovarian,> 100 µM
same,TGI,OVCAR-8 ovarian,> 100 µM
same,GI50,786-0 renal,> 100 µM
same,TGI,786-0 renal,> 100 µM
same,GI50,HCT-116 colon,> 100 µM
same,TGI,HCT-116 colon,> 100 µM
same,GI50,SK-MEL-28 melanoma,> 100 µM
same,TGI,SK-MEL-28 melanoma,> 100 µM
same,GI50,UACC-257 melanoma,> 100 µM
same,TGI,UACC-257 melanoma,> 100 µM
same,GI50,DLD-1 colon,> 100 µM
same,TGI,DLD-1 colon,> 100 µM
same,GI50,UO-31 renal,> 100 µM
same,TGI,UO-31 renal,> 100 µM
same,GI50,U251 CNS,> 100 µM
same,TGI,U251 CNS,> 100 µM
same,GI50,SNB-78 CNS,> 100 µM
same,TGI,SNB-78 CNS,> 100 µM
same,GI50,KM12 colon,> 100 µM
same,TGI,KM12 colon,> 100 µM
same,GI50,HCT-15 colon,> 100 µM
same,TGI,HCT-15 colon,> 100 µM
same,GI50,SNB-75 CNS,> 100 µM
same,TGI,SNB-75 CNS,> 100 µM
same,GI50,SK-MEL-5 melanoma,> 100 µM
same,TGI,SK-MEL-5 melanoma,> 100 µM
same,GI50,RPMI-8226 leukemia,> 100 µM
same,TGI,RPMI-8226 leukemia,> 100 µM
same,GI50,IGROV1 ovarian,> 100 µM
same,TGI,IGROV1 ovarian,> 100 µM
same,GI50,LOX IMVI melanoma,> 100 µM
same,TGI,LOX IMVI melanoma,> 100 µM
same,GI50,SF-295 CNS,> 100 µM
same,TGI,SF-295 CNS,> 100 µM
same,GI50,M19-MEL melanoma,> 100 µM
same,TGI,M19-MEL melanoma,> 100 µM
same,GI50,HT29 colon,> 100 µM
same,TGI,HT29 colon,> 100 µM
same,GI50,SNB-19 CNS,> 100 µM
same,TGI,SNB-19 CNS,> 100 µM
same,GI50,UACC-62 melanoma,> 100 µM
same,TGI,UACC-62 melanoma,> 100 µM
same,GI50,MOLT-4 leukemia,> 100 µM
same,TGI,MOLT-4 leukemia,> 100 µM
same,GI50,COLO 205 colon,> 100 µM
same,TGI,COLO 205 colon,> 100 µM
same,GI50,NCI-H226 lung,> 100 µM
same,TGI,NCI-H226 lung,> 100 µM

# — PubChem BioAssay (NCI)
